# Results published in patent US10052330B2, “Substituted pyrido[3,4-b]pyrazines as Syk inhibitors” (HUTCHISON MEDIPHARMA LIMITED, priority 2011, dated 2018).
# Read-outs that look alike come from different tables or passages of the source.
# Experiments:
# RBL-2H3 cells = experiment: IgE-induced Beta-hexosaminidase secretion in RBL-2H3 cells; type: cell-based; conditions: Rattus norvegicus, upper bound of each range is 'less than', read-out: IC50, IgE-induced Beta-hexosaminidase secretion
# [1] = tested on: Bone marrow mast cells (BMMCs); experiment: IgE-induced LAT phosphorylation in bone marrow mast cells; type: cell-based, mice; conditions: Mus musculus, BMMC; BMMCs from female BALB/C mice, sensitized with SPE-7, stimulated with DNP-BSA; upper bound is 'less than'; read-out: IC50, IgE-induced LAT phosphorylation
# Syk kinase = Syk kinase (Homo sapiens, UniProt P43405); experiment: Syk kinase enzymatic assay (Kit-Tyr 2 Peptide); type: biochemical; conditions: 8 concentrations, 1 μM down to 0.0003 μM; upper bound of each range is 'less than'; read-out: IC50: Enzymatic Activity (Syk kinase)
# [2] = RBL-2H3, RBL-2H3 cells sensitized with SPE-7, stimulated with DNP-BSA
Compound,IC50 (Syk kinase),IC50 (RBL-2H3 cells; [2]),IC50 [1],"IC50 (RBL-2H3 cells; RBL-2H3 cells sensitized with SPE-7, stimulated with DNP-BSA)"
"OC[C@@H]1CCN(c2nc(-c3ccc(N4CCOCC4)cc3)cc3nccnc23)C1 [Compound 159, (R)-(1-(7-(4-morpholinophenyl)pyrido[4,3-b]pyrazin-5-yl)pyrrolidin-3-yl)methanol]",100 to 1000 nM,1 to 100 nM,100 to 1000 nM,
C[C@H](O)CNc1nc(-c2ccc(N3CCOCC3)cc2)cc2nccnc12 [Compound 161],100 to 1000 nM,100 to 1000 nM,100 to 1000 nM,
"OC[C@H]1CCN(c2nc(-c3ccc(N4CCOCC4)cc3)cc3nccnc23)C1 [Compound 163, (S)-(1-(7-(4-morpholinophenyl)pyrido[4,3-b]pyrazin-5-yl)pyrrolidin-3-yl)methanol]",100 to 1000 nM,1 to 100 nM,100 to 1000 nM,
c1cnc2c(NC3CC3)nc(-c3ccc(N4CCOCC4)cc3)cc2n1 [Compound 181],,100 to 1000 nM,100 to 1000 nM,
c1cc(CNc2nc(-c3ccc(N4CCOCC4)cc3)cc3nccnc23)ccn1 [Compound 184],,100 to 1000 nM,100 to 1000 nM,
NC(=O)CCNc1nc(-c2ccc(N3CCOCC3)cc2)cc2nccnc12 [Compound 188],100 to 1000 nM,1 to 100 nM,100 to 1000 nM,
"CC(=O)OCCCOc1ccc(-c2cc3nccnc3c(NC[C@@H]3CNCCO3)n2)cc1 [Compound 477, (S)-3-(4-(5-(morpholin-2-ylmethylamino)pyrido[4,3-b]pyrazin-7-yl)phenoxy)propyl acetate]",100 to 1000 nM,1 to 100 nM,,
"CCN1CCC(c2ccc(-c3cc4nccnc4c(NC[C@@H]4CN(S(C)(=O)=O)CCO4)n3)cc2)CC1 [Compound 479, (R)-7-(4-(1-ethylpiperidin-4-yl)phenyl)-N-((4-(methylsulfonyl)morpholin-2-yl)methyl)pyrido[4,3-b]pyrazin-5-amine]",1 to 100 nM,,,1 to 100 nM
O=C(C(F)F)N1CCO[C@H](CNc2nc(-c3ccc(N4CCN(CCCO)CC4)cc3)cc3nccnc23)C1 [Compound 490],1 to 100 nM,1 to 100 nM,,
CS(=O)(=O)N1CCO[C@H](CNc2nc(-c3ccc(C4CCN(CCO)CC4)cc3)cc3nccnc23)C1 [Compound 493],1 to 100 nM,100 to 1000 nM,,
CS(=O)(=O)N1CCO[C@H](CNc2nc(-c3ccc(C4CCN(CCCO)CC4)cc3)cc3nccnc23)C1 [Compound 494],1 to 100 nM,100 to 1000 nM,,
O=S(=O)(C1CC1)N1CCC(c2ccc(-c3cc4nccnc4c(NC[C@@H]4CNCCO4)n3)cc2)CC1 [Compound 497],1 to 100 nM,1 to 100 nM,,
CNS(=O)(=O)N1CCC(c2ccc(-c3cc4nccnc4c(NC[C@@H]4CNCCO4)n3)cc2)CC1 [Compound 498],1 to 100 nM,1 to 100 nM,,
CN(C)S(=O)(=O)N1CCC(c2ccc(-c3cc4nccnc4c(NC[C@@H]4CNCCO4)n3)cc2)CC1 [Compound 499],1 to 100 nM,1 to 100 nM,,
CS(=O)(=O)N1CCC(Nc2ccc(-c3cc4nccnc4c(NC[C@@H]4CNCCO4)n3)cc2)CC1 [Compound 500],1 to 100 nM,100 to 1000 nM,,
CS(=O)(=O)N1CCC(c2ccc(-c3cc4nccnc4c(NCC4CNC(=O)CO4)n3)cc2)CC1 (stereo not drawn) [Compound 501],1 to 100 nM,1 to 100 nM,,
CS(=O)(=O)N1CCCN(c2ccc(-c3cc4nccnc4c(NC[C@@H]4CNCCO4)n3)cc2)CC1 [Compound 502],1 to 100 nM,100 to 1000 nM,,
CS(=O)(=O)N1CCN(Cc2ccc(-c3cc4nccnc4c(NC[C@@H]4CNCCO4)n3)cc2)CC1 [Compound 503],1 to 100 nM,100 to 1000 nM,,
CCC(=O)N1CCC(c2ccc(-c3cc4nccnc4c(NC[C@@H]4CNCCO4)n3)cc2)CC1 [Compound 504],1 to 100 nM,1 to 100 nM,,
COCC(=O)N1CCC(c2ccc(-c3cc4nccnc4c(NC[C@@H]4CNCCO4)n3)cc2)CC1 [Compound 505],1 to 100 nM,1 to 100 nM,,
NC(=O)N1CCC(c2ccc(-c3cc4nccnc4c(NC[C@@H]4CNCCO4)n3)cc2)CC1 [Compound 506],1 to 100 nM,100 to 1000 nM,,
CCS(=O)(=O)N1CCN(c2ccc(-c3cc4nccnc4c(NC[C@@H]4CN(C(C)=O)CCO4)n3)cc2)CC1 [Compound 510],1 to 100 nM,100 to 1000 nM,,
O=C(CO)N1CCC(c2ccc(-c3cc4nccnc4c(NC[C@@H]4CNCCO4)n3)cc2)CC1 [Compound 511],1 to 100 nM,1 to 100 nM,,
O=C(CCO)N1CCC(c2ccc(-c3cc4nccnc4c(NC[C@@H]4CNCCO4)n3)cc2)CC1 [Compound 512],1 to 100 nM,100 to 1000 nM,,

# The next lines start with results.
IC50 (Syk kinase),Compound,IC50 (RBL-2H3 cells; [2]),IC50 [1],"IC50 (RBL-2H3 cells; RBL-2H3 cells sensitized with SPE-7, stimulated with DNP-BSA)"
1 to 100 nM,COc1ccc(-c2cc3nccnc3c(NCC3CCCNC3)n2)cc1 (stereo not drawn) [Compound 10],100 to 1000 nM,100 to 1000 nM,
1 to 100 nM,CN(C)c1ccc(-c2cc3nccnc3c(NCC3CCCNC3)n2)cc1 (stereo not drawn) [Compound 12],1 to 100 nM,100 to 1000 nM,
1 to 100 nM,COc1ccc(-c2cc3nccnc3c(NC[C@H]3CCCNC3)n2)cc1F [Compound 35],1 to 100 nM,100 to 1000 nM,
1 to 100 nM,CNc1ccc(-c2cc3nccnc3c(NCC3CCCNC3)n2)cc1 (stereo not drawn) [Compound 44],1 to 100 nM,100 to 1000 nM,
1 to 100 nM,c1cnc2c(NC[C@H]3CCCNC3)nc(-c3ccc(N4CCCC4)cc3)cc2n1 [Compound 70],1 to 100 nM,100 to 1000 nM,
1 to 100 nM,c1cnc2c(N3CCC4(CCNC4)C3)nc(-c3ccc(N4CCOCC4)cc3)cc2n1 (stereo not drawn) [Compound 71],100 to 1000 nM,100 to 1000 nM,
1 to 100 nM,Nc1ccc(-c2cc3nccnc3c(NC[C@H]3CCCNC3)n2)cc1Cl [Compound 81],100 to 1000 nM,100 to 1000 nM,
1 to 100 nM,CNc1ccc(-c2cc3nccnc3c(NC[C@H]3CCCNC3)n2)cc1 [Compound 82],1 to 100 nM,100 to 1000 nM,
1 to 100 nM,COc1ccc(-c2cc3nccnc3c(NC[C@H]3CCCNC3)n2)cc1Cl [Compound 93],1 to 100 nM,100 to 1000 nM,
1 to 100 nM,Cc1cc(-c2cc3nccnc3c(NC[C@H]3CCCNC3)n2)ccc1N1CCOCC1 [Compound 94],100 to 1000 nM,100 to 1000 nM,
1 to 100 nM,c1cnc2c(NC[C@@H]3CNCCO3)nc(-c3ccc(N4CCOCC4)nc3)cc2n1 [Compound 99],1 to 100 nM,100 to 1000 nM,
1 to 100 nM,c1cnc2c(N3CCC4(CCCNC4)C3)nc(-c3ccc(N4CCOCC4)cc3)cc2n1 (stereo not drawn) [Compound 105],1 to 100 nM,100 to 1000 nM,
1 to 100 nM,CN(C)c1ccc(-c2cc3nccnc3c(NC[C@@H]3CNCCO3)n2)cc1 [Compound 107],1 to 100 nM,100 to 1000 nM,
1 to 100 nM,Cc1cc(-c2cc3nccnc3c(NC[C@@H]3CNCCO3)n2)ccc1N1CCOCC1 [Compound 116],1 to 100 nM,100 to 1000 nM,
1 to 100 nM,CNc1ccc(-c2cc3nccnc3c(NC[C@@H]3CNCCO3)n2)cc1F [Compound 137],1 to 100 nM,100 to 1000 nM,
1 to 100 nM,CNc1ccc(-c2cc3nccnc3c(NC[C@H]3CCCNC3)n2)cc1F [Compound 140],1 to 100 nM,100 to 1000 nM,
1 to 100 nM,FC1CNCC(CNc2nc(-c3ccc(N4CCOCC4)cc3)cc3nccnc23)C1 (stereo not drawn) [Compound 156],1 to 100 nM,100 to 1000 nM,
1 to 100 nM,CN(C)c1ccc(-c2cc3nccnc3c(NCCCN)n2)cc1 [Compound 185],100 to 1000 nM,100 to 1000 nM,
1 to 100 nM,CNc1ccc(-c2cc3nccnc3c(NC[C@@H]3CNCCO3)n2)cc1C#N [Compound 473],1 to 100 nM,,
1 to 100 nM,CN(C)c1ccc(-c2cc3nccnc3c(NC[C@@H]3CNCCO3)n2)cc1C#N [Compound 474],1 to 100 nM,,
1 to 100 nM,"OCCCOc1ccc(-c2cc3nccnc3c(NC[C@@H]3CNCCO3)n2)cc1 [Compound 476, (S)-3-(4-(5-(morpholin-2-ylmethylamino)pyrido[4,3-b]pyrazin-7-yl)phenoxy)propan-1-ol]",1 to 100 nM,,
1 to 100 nM,"CN(CCO)c1ccc(-c2cc3nccnc3c(NCC3CNCCC3(F)F)n2)cc1 (stereo not drawn) [Compound 485, 2-((4-(5-((4,4-difluoropiperidin-3-yl)methylamino)pyrido[4,3-b]pyrazin-7-yl)phenyl)(methyl)amino)ethanol]",1 to 100 nM,,
1 to 100 nM,CCN1CCN(c2ccc(-c3cc4nccnc4c(NC[C@@H]4CN(S(C)(=O)=O)CCO4)n3)cc2)CC1 [Compound 487],100 to 1000 nM,,
1 to 100 nM,CCN1CCN(c2ccc(-c3cc4nccnc4c(NC[C@@H]4CN(C(=O)C(F)F)CCO4)n3)cc2)CC1 [Compound 488],1 to 100 nM,,
1 to 100 nM,O=C(C(F)F)N1CCO[C@H](CNc2nc(-c3ccc(N4CCN(CCO)CC4)cc3)cc3nccnc23)C1 [Compound 489],1 to 100 nM,,
